The source of these data is article PMC8887546, “Design and Synthesis of Brain Penetrant Glycopeptide Analogues of PACAP With Neuroprotective Potential for Traumatic Brain Injury and Parkinsonism” (Frontiers in drug discovery, 2022).

What all share (type): cell-based
In one experiment the target is T1, human PAC1 receptor (Homo sapiens, UniProt P41586).
T1 construct: expressed in transfected cells; host or cells: CHO cells (G418 selection)
T1 sequence (P41586 21-468): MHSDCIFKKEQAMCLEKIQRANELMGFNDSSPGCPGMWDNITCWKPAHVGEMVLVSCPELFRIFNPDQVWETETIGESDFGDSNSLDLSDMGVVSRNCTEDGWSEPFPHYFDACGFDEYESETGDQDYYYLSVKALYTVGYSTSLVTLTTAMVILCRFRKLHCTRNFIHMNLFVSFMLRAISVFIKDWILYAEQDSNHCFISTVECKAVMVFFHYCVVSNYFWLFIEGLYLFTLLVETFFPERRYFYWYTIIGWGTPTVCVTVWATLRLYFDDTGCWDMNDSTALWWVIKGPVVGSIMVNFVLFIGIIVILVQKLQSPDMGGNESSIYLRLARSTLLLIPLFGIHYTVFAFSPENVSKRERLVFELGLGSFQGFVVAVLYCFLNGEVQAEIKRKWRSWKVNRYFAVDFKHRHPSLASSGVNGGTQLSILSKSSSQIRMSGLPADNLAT
As to the kind of experiment: cAMP stimulation in CHO cells expressing PAC1. The settings on record: for Emax: CHO. In short, it runs like this:
(§1)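 Serum-starved CHO cells expressing human receptors were pre-treated 20 min with 500 μM IBMX, then exposed to agonist concentration curves for 10 min in 500 μM IBMX. cAMP quantified by competition with bovine PKA and ^3H-cAMP (1 h, room temperature), scintillation read.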

The next experiment addresses T2, human VPAC1 receptor (Homo sapiens, UniProt P32241).
T2 construct: expressed in transfected cells; host or cells: CHO cells (G418 selection)
T2 sequence (P32241 31-457): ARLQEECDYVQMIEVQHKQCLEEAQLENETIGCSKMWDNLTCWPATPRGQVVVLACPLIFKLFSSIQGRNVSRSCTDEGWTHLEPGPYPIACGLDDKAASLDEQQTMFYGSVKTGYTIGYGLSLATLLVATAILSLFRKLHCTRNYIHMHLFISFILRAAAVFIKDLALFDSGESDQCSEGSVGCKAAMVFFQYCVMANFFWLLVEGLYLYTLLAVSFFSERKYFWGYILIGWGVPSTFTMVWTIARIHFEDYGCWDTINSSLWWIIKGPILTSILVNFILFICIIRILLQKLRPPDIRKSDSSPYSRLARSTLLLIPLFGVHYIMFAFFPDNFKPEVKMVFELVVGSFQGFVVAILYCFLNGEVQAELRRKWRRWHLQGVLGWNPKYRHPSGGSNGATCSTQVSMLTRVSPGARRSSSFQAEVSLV
As to the kind of experiment: cAMP stimulation in CHO cells expressing VPAC1. The settings on record: for Emax: CHO, read-out: VPAC1 Emax; for Receptor selectivity ratio VPAC1/PAC1: ratio of cAMP EC50 values; for EC50: read-out: VPAC1 EC50.

Another experiment deals with T3, human VPAC2 receptor (Homo sapiens, UniProt P41587).
T3 construct: expressed in transfected cells; host or cells: CHO cells (G418 selection)
T3 sequence (P41587 24-438): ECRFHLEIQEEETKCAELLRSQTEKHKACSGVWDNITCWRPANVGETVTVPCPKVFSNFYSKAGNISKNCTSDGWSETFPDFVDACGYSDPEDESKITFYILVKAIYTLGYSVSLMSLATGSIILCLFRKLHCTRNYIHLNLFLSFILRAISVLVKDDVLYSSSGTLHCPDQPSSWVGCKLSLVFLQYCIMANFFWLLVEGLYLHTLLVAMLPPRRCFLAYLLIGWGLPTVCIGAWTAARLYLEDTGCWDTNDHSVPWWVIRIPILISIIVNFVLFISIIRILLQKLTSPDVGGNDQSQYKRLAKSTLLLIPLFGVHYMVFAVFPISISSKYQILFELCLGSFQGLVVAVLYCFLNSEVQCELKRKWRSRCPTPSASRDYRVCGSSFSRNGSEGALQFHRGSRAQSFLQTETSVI
Briefly: cAMP stimulation in CHO cells expressing VPAC2. As to conditions: for Emax: CHO; for Receptor selectivity ratio VPAC2/PAC1 / Receptor selectivity ratio VPAC2/VPAC1: ratio of cAMP EC50 values. A digest of the protocol:
as §1

`CCCC[C@H](NC(=O)CN(C)C(=O)[C@H](CC(=O)O)NC(=O)[C@@H](CO)NC(=O)[C@@H](N)Cc1c[nH]cn1)C(=O)N[C@@H](Cc1ccccc1)C(=O)N[C@H](C(=O)N[C@@H](CC(=O)O)C(=O)N[C@@H](CO)C(=O)N[C@@H](Cc1ccc(O)cc1)C(=O)N[C@@H](CO)C(=O)N[C@@H](CCCNC(=N)N)C(=O)N[C@@H](Cc1ccc(O)cc1)C(=O)N[C@@H](CCCNC(=N)N)C(=O)N[C@@H](CCCCN)C(=O)N[C@@H](CCC(N)=O)C(=O)N[C@@H](CCC)C(=O)N[C@@H](C)C(=O)N[C@H](C(=O)N[C@@H](CCCCN)C(=O)N[C@@H](CCCCN)C(=O)N[C@@H](Cc1ccc(O)cc1)C(=O)N[C@@H](CC(C)C)C(=O)N[C@@H](C)C(=O)N[C@@H](C)C(=O)N[C@H](C(=O)N[C@@H](CC(C)C)C(=O)N[C@@H](CO[C@@H]1O[C@H](CO)[C@@H](O)[C@H](O)[C@H]1O)C(N)=O)C(C)C)C(C)C)[C@@H](C)O` [CRA3018]: the figures for the Emax on human PAC1 receptor, on human VPAC1 receptor and at human VPAC2 receptor were 85%, 104% and 112%, respectively.
Consider `CCC[C@H](NC(=O)[C@H](CCC(N)=O)NC(=O)[C@H](CCCCN)NC(=O)[C@H](CCCNC(=N)N)NC(=O)[C@H](Cc1ccc(O)cc1)NC(=O)[C@H](CCCNC(=N)N)NC(=O)[C@H](CO)NC(=O)[C@H](Cc1ccc(O)cc1)NC(=O)[C@H](CO)NC(=O)[C@H](CC(=O)O)NC(=O)[C@@H](NC(=O)[C@H](Cc1ccccc1)NC(=O)[C@H](C)NC(=O)CNC(=O)[C@H](CC(=O)O)NC(=O)[C@@H](CO)NC(=O)[C@@H](N)Cc1c[nH]cn1)[C@@H](C)O)C(=O)N[C@@H](C)C(=O)N[C@H](C(=O)N[C@@H](CCCCN)C(=O)N[C@@H](CCCCN)C(=O)N[C@@H](Cc1ccc(O)cc1)C(=O)N[C@@H](CC(C)C)C(=O)N[C@@H](C)C(=O)N[C@@H](C)C(=O)N[C@H](C(=O)N[C@@H](CC(C)C)C(=O)N[C@@H](CO[C@@H]1O[C@H](CO)[C@@H](O)[C@H](O)[C@H]1O)C(N)=O)C(C)C)C(C)C` [CRA 3014], for which, on human PAC1 receptor, the EC50 (usually the concentration that produces a half-maximal response) amounted to 0.205 µM and the Emax – broadly, the maximal effect, on the per cent scale that the assay sets – came to 79%. On human VPAC1 receptor, the maximum response (Emax) amounted to 122%, the “Receptor selectivity ratio VPAC1/PAC1” value stood at 0.64 and the EC50 stood at 0.132 µM. Besides, on human VPAC2 receptor, it took 2.65 µM to reach a half-maximal effect (EC50), the Emax amounted to 122%, the “Receptor selectivity ratio VPAC2/PAC1” value was 12.95 and the “Receptor selectivity ratio VPAC2/VPAC1” value turned out to be 20.11.
On human PAC1 receptor, `CCC[C@H](NC(=O)CNC(=O)[C@H](CC(=O)O)NC(=O)[C@@H](CO)NC(=O)[C@@H](N)Cc1c[nH]cn1)C(=O)N[C@@H](Cc1ccccc1)C(=O)N[C@H](C(=O)N[C@@H](CC(=O)O)C(=O)N[C@@H](CO)C(=O)N[C@@H](Cc1ccc(O)cc1)C(=O)N[C@@H](CO)C(=O)N[C@@H](CCCNC(=N)N)C(=O)N[C@@H](Cc1ccc(O)cc1)C(=O)N[C@@H](CCCNC(=N)N)C(=O)N[C@@H](CCCCN)C(=O)N[C@@H](CCC(N)=O)C(=O)N[C@@H](CCC)C(=O)N[C@@H](C)C(=O)N[C@H](C(=O)N[C@@H](CCCCN)C(=O)N[C@@H](CCCCN)C(=O)N[C@@H](Cc1ccc(O)cc1)C(=O)N[C@@H](CC(C)C)C(=O)N[C@@H](C)C(=O)N[C@@H](C)C(=O)N[C@H](C(=O)N[C@@H](CC(C)C)C(=O)N[C@@H](CO[C@@H]1O[C@H](CO)[C@@H](O)[C@H](O)[C@H]1O)C(N)=O)C(C)C)C(C)C)[C@@H](C)O` [CRA 3016] gave an EC50 of 0.0254 µM and an Emax of 93%. Besides, at human VPAC1 receptor, the Emax is 109%, the “Receptor selectivity ratio VPAC1/PAC1” value was found to be 1.13 and the EC50 turned out to be 0.0286 µM. At human VPAC2 receptor, the concentration for a half-maximal effect (EC50) was 0.291 µM, the maximum response (Emax) is 105%, the “Receptor selectivity ratio VPAC2/PAC1” value came to 11.46 and the “Receptor selectivity ratio VPAC2/VPAC1” value was 10.17.
